Calls of active or inactive are those of the source. No cut-off for these calls is given here.
Tests used:
[1] = tested on: MHCC97H; experiment: Antiproliferative activity against human MHCC97H cells incubated for 24 hrs by CCK8 assay; format: functional, cell-based
[2] = target: T1, Hepatocyte growth factor receptor (Homo sapiens, UniProt P08581); experiment: Induction of c-Met degradation in human MHCC97H cells at 500 nM by Western blotting analysis; format: cell-based; conditions: time 3-48 hrs, TDE = time-dependent effect
[3] = target: T1, Hepatocyte growth factor receptor; experiment: Induction of c-Met degradation in human MHCC97H cells assessed as downregulation of c-Met protein level at 500 nM after 24 hrs by Western blotting analysis; format: cell-based
[4] = target: T1, Hepatocyte growth factor receptor; experiment: Induction of c-Met degradation in human MHCC97H cells at 500 nM after 24 hrs in presence of MG-132 by Western blotting analysis; format: cell-based
[5] = tested on: MHCC97H; experiment: Inhibition of cell growth in human MHCC97H cells incubated for 5 days by microplate reader assay; format: functional, cell-based; conditions: time 5.0 day
[6] = tested on: MHCC97H; experiment: Induction of cell cycle arrest in human MHCC97H cells assessed as accumulation of cells at G1 phase at 3 nM incubated for 24 hrs by PI staining based flow cytometry analysis (reference value: 70.4%); format: functional
[7] = tested on: MHCC97H; experiment: Induction of cell cycle arrest in human MHCC97H cells assessed as accumulation of cells at G2 phase at 3 nM incubated for 24 hrs by PI staining based flow cytometry analysis (reference value: 19.1%); format: functional
[8] = tested on: MHCC97H; experiment: Induction of cell cycle arrest in human MHCC97H cells assessed as accumulation of cells at G1 phase at 10 nM incubated for 24 hrs by PI staining based flow cytometry analysis (reference value: 70.4%); format: functional
[9] = tested on: MHCC97H; experiment: Induction of cell cycle arrest in human MHCC97H cells assessed as accumulation of cells at G2 phase at 10 nM incubated for 24 hrs by PI staining based flow cytometry analysis (reference value: 19.1%); format: functional
[10] = tested on: MHCC97H; experiment: Induction of cell cycle arrest in human MHCC97H cells assessed as accumulation of cells at G2 phase at 100 nM incubated for 24 hrs by PI staining based flow cytometry analysis (reference value: 19.1%); format: functional
[11] = tested on: MHCC97H; experiment: Induction of apoptosis in human MHCC97H cells assessed as viable cells at 3 nM incubated for 24 hrs by Annexin-V-FITC/PI staining based flow cytometry analysis (reference value: 86.3%); format: functional; conditions: read-out: Activity
[12] = tested on: MHCC97H; experiment: Induction of apoptosis in human MHCC97H cells assessed as early apoptotic cells at 3 nM incubated for 24 hrs by Annexin-V-FITC/PI staining based flow cytometry analysis (reference value: 7.70%); format: functional
[13] = tested on: MHCC97H; experiment: Induction of apoptosis in human MHCC97H cells assessed as viable cells at 10 nM incubated for 24 hrs by Annexin-V-FITC/PI staining based flow cytometry analysis (reference value: 86.3%); format: functional; conditions: read-out: Activity
[14] = tested on: MHCC97H; experiment: Induction of apoptosis in human MHCC97H cells assessed as viable cells at 100 nM incubated for 24 hrs by Annexin-V-FITC/PI staining based flow cytometry analysis (reference value: 86.3%); format: functional; conditions: read-out: Activity
[15] = tested on: MHCC97H; experiment: Induction of apoptosis in human MHCC97H cells assessed as late apoptotic cells at 100 nM incubated for 24 hrs by Annexin-V-FITC/PI staining based flow cytometry analysis (reference value: 4.24%); format: functional
[16] = tested on: MHCC97H; experiment: Antitumor activity against human MHCC97H cells xenografted in BALB/c mouse assessed as reduction in tumor positive cells at 10 mg/kg, ip qd for 22 days and measured every 2 days by Ki67 staining based analysis; format: functional, organism-based; conditions: time 22.0 day
[17] = tested on: MHCC97H; experiment: Antitumor activity against human MHCC97H cells xenografted in BALB/c mouse assessed as tumor growth inhibition at 20 mg/kg, po qd for 22 days and measured every 2 days by Ki67 staining based analysis; format: functional, organism-based; conditions: time 22.0 day
[18] = Toxicity in BALB/c mouse xenografted with human MHCC97H cells assessed as liver lesions at 10 mg/kg, ip qd for 22 days and measured every 2 days by H and E staining based assay; format: organism-based; conditions: in vivo, 528 h, time 22 day
[19] = Toxicity in BALB/c mouse xenografted with human MHCC97H cells assessed as kidney lesions at 10 mg/kg, ip qd for 22 days and measured every 2 days by H and E staining based assay; format: organism-based; conditions: in vivo, 528 h, time 22 day
[20] = Toxicity in BALB/c mouse xenografted with human MHCC97H cells assessed as spleen lesions at 10 mg/kg, ip qd for 22 days and measured every 2 days by H and E staining based assay; format: organism-based; conditions: in vivo, 528 h, time 22 day
[21] = Toxicity in BALB/c mouse xenografted with human MHCC97H cells assessed as heart lesions at 10 mg/kg, ip qd for 22 days and measured every 2 days by H and E staining based assay; format: organism-based; conditions: in vivo, 528 h, time 22 day
[22] = Toxicity in BALB/c mouse xenografted with human MHCC97H cells assessed as liver lesions at 20 mg/kg, po qd for 22 days and measured every 2 days by H and E staining based assay; format: organism-based; conditions: in vivo, 528 h, time 22 day
[23] = Toxicity in BALB/c mouse xenografted with human MHCC97H cells assessed as lung lesions at 20 mg/kg, po qd for 22 days and measured every 2 days by H and E staining based assay; format: organism-based; conditions: in vivo, 528 h, time 22 day
[24] = Toxicity in BALB/c mouse xenografted with human MHCC97H cells assessed as heart lesions at 20 mg/kg, po qd for 22 days and measured every 2 days by H and E staining based assay; format: organism-based; conditions: in vivo, 528 h, time 22 day
[25] = tested on: Mus musculus; experiment: Downregulation of phosphorylated c-Met level in BALB/c mouse tumor xenografted with human MHCC97H cells at 20 mg/kg, po qd for 22 days and measured every 2 days by Western blotting analysis; format: functional, organism-based; conditions: time 22.0 day
[26] = tested on: Mus musculus; experiment: Downregulation of phosphorylated STAT3 level in BALB/c mouse tumor xenografted with human MHCC97H cells at 20 mg/kg, po qd for 22 days and measured every 2 days by Western blotting analysis; format: functional, organism-based; conditions: time 22.0 day
[27] = tested on: Mus musculus; experiment: Downregulation of c-Met protein level in BALB/c mouse tumor xenografted with human MHCC97H cells at 10 mg/kg, ip qd for 22 days and measured every 2 days by Western blotting analysis; format: functional, organism-based; conditions: time 22.0 day
[28] = AUC(0 to infinity) in Sprague-Dawley rat at 1 mg/kg, iv by LC-MS/MS method; format: ADME, organism-based; conditions: in vivo
[29] = Tmax in Sprague-Dawley rat at 1 mg/kg, iv by LC-MS/MS method; format: ADME, organism-based; conditions: in vivo
[30] = AUC(0 to infinity) in Sprague-Dawley rat at 10 mg/kg, po by LC-MS/MS method; format: ADME, organism-based; conditions: in vivo
[31] = Cmax in Sprague-Dawley rat at 10 mg/kg, po by LC-MS/MS method; format: ADME, organism-based; conditions: in vivo
[32] = Half-life in Sprague-Dawley rat at 10 mg/kg, po by LC-MS/MS method; format: ADME, organism-based; conditions: in vivo
[33] = Tmax in Sprague-Dawley rat at 10 mg/kg, po by LC-MS/MS method; format: ADME, organism-based; conditions: in vivo
[34] = Oral bioavailability in Sprague-Dawley rat at 10 mg/kg by LC-MS/MS method; format: ADME, organism-based; conditions: in vivo
[35] = tested on: BaF3; experiment: Antiproliferative activity against mouse BaF3 cells harboring TPR-MET fusion protein incubated for 72 hrs by CellTiter-Glo reagent based assay; format: functional, cell-based; conditions: BaF3, 72 h
[36] = tested on: BaF3; experiment: Antiproliferative activity against mouse BaF3 cells harboring TPR-MET Y1230H mutant fusion protein incubated for 72 hrs by CellTiter-Glo reagent based assay; format: functional, cell-based; conditions: BaF3, 72 h

T1 sequence (P08581 whole entry): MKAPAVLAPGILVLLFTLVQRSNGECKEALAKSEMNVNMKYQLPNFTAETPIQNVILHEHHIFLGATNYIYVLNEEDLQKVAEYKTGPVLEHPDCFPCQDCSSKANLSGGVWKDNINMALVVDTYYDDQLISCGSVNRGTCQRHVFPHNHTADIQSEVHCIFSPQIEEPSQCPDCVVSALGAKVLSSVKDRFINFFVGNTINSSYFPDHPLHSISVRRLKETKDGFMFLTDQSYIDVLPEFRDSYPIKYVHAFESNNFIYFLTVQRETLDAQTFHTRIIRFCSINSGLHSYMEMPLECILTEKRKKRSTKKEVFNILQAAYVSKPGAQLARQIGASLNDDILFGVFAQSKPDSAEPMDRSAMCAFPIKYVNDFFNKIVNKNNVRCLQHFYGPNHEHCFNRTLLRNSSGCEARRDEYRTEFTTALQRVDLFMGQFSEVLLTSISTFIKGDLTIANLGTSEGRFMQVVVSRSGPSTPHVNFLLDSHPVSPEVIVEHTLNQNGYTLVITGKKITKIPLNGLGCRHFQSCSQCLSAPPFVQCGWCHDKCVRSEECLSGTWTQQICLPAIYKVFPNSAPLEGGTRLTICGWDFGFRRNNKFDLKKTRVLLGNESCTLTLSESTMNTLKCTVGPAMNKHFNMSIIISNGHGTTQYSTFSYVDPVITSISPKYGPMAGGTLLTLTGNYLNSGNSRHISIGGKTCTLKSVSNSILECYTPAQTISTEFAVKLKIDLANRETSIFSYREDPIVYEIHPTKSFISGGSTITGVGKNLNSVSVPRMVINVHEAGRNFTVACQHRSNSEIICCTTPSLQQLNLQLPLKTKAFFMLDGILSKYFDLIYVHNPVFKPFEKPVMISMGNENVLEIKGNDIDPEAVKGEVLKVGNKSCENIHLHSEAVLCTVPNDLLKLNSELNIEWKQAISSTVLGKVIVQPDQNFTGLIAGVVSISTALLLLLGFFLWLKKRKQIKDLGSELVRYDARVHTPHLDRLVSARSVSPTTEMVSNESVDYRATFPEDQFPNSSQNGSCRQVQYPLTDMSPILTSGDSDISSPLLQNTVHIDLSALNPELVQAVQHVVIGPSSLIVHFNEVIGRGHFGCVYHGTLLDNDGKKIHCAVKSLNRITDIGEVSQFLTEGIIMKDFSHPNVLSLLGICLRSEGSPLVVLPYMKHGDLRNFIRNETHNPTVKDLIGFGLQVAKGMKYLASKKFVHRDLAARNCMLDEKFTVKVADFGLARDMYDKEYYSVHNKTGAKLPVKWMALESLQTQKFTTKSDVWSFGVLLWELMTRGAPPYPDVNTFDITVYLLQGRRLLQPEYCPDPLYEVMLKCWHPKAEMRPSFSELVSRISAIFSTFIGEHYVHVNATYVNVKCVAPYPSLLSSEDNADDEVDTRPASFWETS

SMILES: N#Cc1cccc(-c2ccc(=O)n(Cc3cccc(-c4ncc(OCC5CCN(CCCCCC(=O)NCC67CC8CC(CC(C8)C6)C7)CC5)cn4)c3)n2)c1
- IC50 [1]: 2.62 nM
- Activity [2]: Tde
- Activity [3]: Active
- Activity [4]: inactive
- inhibition [5]: Active
- Activity [6]: 74.6%
- Activity [7]: 15.9%
- Activity [8]: 77.6%
- Activity [9]: 14.3%
- Activity [10]: 13.6%
- viability at 0.003 µM [11]: 79.5%
- Activity [12]: 16%
- viability at 0.01 µM [13]: 72.7%
- viability at 0.1 µM [14]: 52.7%
- Activity [15]: 6.06%
- Activity [16]: Active
- Activity [17]: Active
- Activity [18]: Non-Toxic
- Activity [19]: Non-Toxic
- Activity [20]: Non-Toxic
- Activity [21]: Non-Toxic
- Activity [22]: Non-Toxic
- Activity [23]: Non-Toxic
- Activity [24]: Non-Toxic
- Activity [25]: Active
- Activity [26]: Active
- Activity [27]: Active
- AUC(0-inf) [28]: 994 ng·h/mL
- Tmax [29]: 4.98 min
- AUC(0-inf) [30]: 74.5 ng·h/mL
- Cmax [31]: 16.3 ng/mL
- half-life [32]: 2.57 h
- Tmax [33]: 1.17 h
- bioavailability [34]: 0.8%
- IC50 [35]: 6.2 nM
- IC50 [36]: 378 nM
